Experimental data reported in PMC4719211, “Comparative Pharmacokinetics of three major bioactive components in rats after oral administration of Typhae Pollen-Trogopterus Feces drug pair before and after compatibility” (DARU Journal of Pharmaceutical Sciences, 2016).

Test: Pharmacokinetic study in rats after oral administration of Typhae Pollen / Typhae Pollen-Trogopterus Feces decoctions (plasma, UPLC-TQ/MS)
Assay type: in vivo, female Sprague–Dawley (SD) rats
Conditions: n = 6, noncompartment model; for Cmax / Tmax / half-life: female, Sprague-Dawley, rat, po; for AUC0~t: rat plasma
Protocol: An ACQUITY UPLC BEH C18 column (2.1 mm × 100 mm, 1.7 μm, Waters Corp., Milford, MA, USA) was applied and the column temperature was maintained at 35 °C. The mobile phase was composed of A (0.1 % aqueous formic acid) and B (acetonitrile) using a gradient elution of 5–10 % B at 0–1 min, 10–30 % B at 1–6 min, 30–40 % B at 6–7 min, 40–95 % B at 7–8 min, 95–5 % B at 8–9 min, […] with a flow rate set at 0.4 mL/min. The auto-sampler was conditioned at 4 °C and the injection volume was 5 μL.
Mass spectrometry detection was performed by using a Xevo Triple Quadrupole MS (Waters Corp., Milford, MA) equipped with an electrospray ionization source (ESI). The ESI source was set in positive ionization mode. The scanning mode was set multiple reaction monitoring (MRM) mode. Parameters set in the source were as follows: the capillary voltage at 1 kV; sampling cone voltage of 30 V; source temperature […]; desolvation temperature 550 °C; dwell time was automatically set by MassLynx (Waters Corp., Milford, MA, USA).
A 200 μL aliquot of plasma sample was added with 10 μL diphenhydramine hydrochloride working solution and 600 μL of methanol. After vortex for 2 min and centrifugation at 13,000 rpm for 10 min, the supernatant was transferred to another 1.5 mL tube and concentrated in the centrifuge enrichment apparatus at 37 °C.
Finally, each residue was reconstituted in 200 μL 70 % methanol, then vortexed for 3 min and centrifuged at 13,000 rpm for 10 min. 5 μL of supernatant was injected into the UPLC-TQ/MS system for analysis.
All experiments were performed on female Sprague–Dawley (SD) rats, weighing 220–250 g, obtained from Shanghai Slac Laboratory Animal Co., Ltd. (Shanghai, China). They were kept in plastic cages at 22 ± 2 °C and a relative humidity of 50–65 %, with free access to pellet food and water on a 12 h light/dark cycle. Animal welfare and experimental procedures strictly conformed to the Guide for the Care and Use of Laboratory Animals and the related ethics regulations of Nanjing University of Chinese Medicine.
For pharmacokinetic studies, the SD rats were divided into four groups randomly (n = 6 per group), and housed with unlimited access to food before the experiment while water available. Each group except the control group was oral administration of TP (CN) single drug decoction, TP-TF co-decoction (CM) and TP-TF mixed decoction (CB) at a dosage of 5 g/kg, 10 g/kg, 10 g/kg body weight, respectively. Blood samples (0.5 mL) were collected at certain time points and placed at a 1.5 mL tube before oral (0 min) and after oral (5, 15, 30, 45, 60, 120, 240, 360, 480, 720 and 1440 min) administration. Afterwards all the blood samples were centrifuged at 13,000 rpm for 10 min and stored at −80 °C until analysis.
The mean plasma concentration-time profiles of typhaneoside, vanillic acid and p-coumaric acid were determined after oral administration with different compatibility of Typhae Pollen-Trogopterus Feces drug pair in rats, the concentration-time curves are presents in Fig. 3, and the noncompartment model pharmacokinetic parameters including maximum plasma concentration (Cmax), time to reach the maximum concentrations (Tmax), half-time (T1/2), area under concentration-time curve (AUC 0~t) are summarized in Table 2.

[1] = plasma, 5 g/kg, oral TP single drug decoction (CN)
[2] = plasma, 10 g/kg, oral TP-TF co-decoction (CM)
[3] = plasma, 10 g/kg, oral TP-TF mixed decoction (CB)
[4] = oral TP single drug decoction (CN), 5 g/kg
[5] = oral TP-TF co-decoction (CM), 10 g/kg
[6] = oral TP-TF mixed decoction (CB), 10 g/kg
[7] = in vivo, 5 g/kg, oral TP single drug decoction (CN)
[8] = in vivo, 10 g/kg, oral TP-TF co-decoction (CM)
[9] = in vivo, 10 g/kg, oral TP-TF mixed decoction (CB)

Row | SMILES | Cmax [1] [ng/mL] | Tmax [1] [h] | half-life [1] [h] | Cmax [2] [ng/mL] | Tmax [2] [h] | half-life [2] [h] | Cmax [3] [ng/mL] | Tmax [3] [h] | half-life [3] [h] | AUC0~t [4] [ng/h/mL] | AUC0~t [5] [ng/h/mL] | AUC0~t [6] [ng/h/mL] | other results
1 | O=C(O)/C=C/c1ccc(O)cc1 [P-coumaric acid, p-coumaric acid] | 4900 ± 1890 | 1.08 ± 1.67 | 3.67 ± 1.82 | 5110 ± 3670 | 1.42 ± 1.39 | 10.1 ± 7.86 | 4190 ± 844 | 0.46 ± 0.4 | 10.1 ± 10.2 | 36881.01 ± 25783.25 | 41512.56 ± 41763.28 | 17689.11 ± 3882.21 | –
2 | COc1cc(-c2oc3cc(O)cc(O)c3c(=O)c2O[C@@H]2O[C@H](CO[C@@H]3O[C@@H](C)[C@H](O)[C@@H](O)[C@H]3O)[C@@H](O)[C@H](O)[C@H]2O[C@@H]2O[C@@H](C)[C@H](O)[C@@H](O)[C@H]2O)ccc1O [Typhaneoside, typhaneoside] | – | – | – | – | – | – | – | – | – | 268.31 ± 167.71 | 333.46 ± 191.84 | 275.62 ± 206.06 | Cmax [7]: 76.4 ± 53.2 ng/mL; Tmax [7]: 2.95 ± 2.88 h; half-life [7]: 3.35 ± 2.58 h; Cmax [8]: 371 ± 316 ng/mL; Tmax [8]: 0.24 ± 0.15 h; half-life [8]: 1.91 ± 1.26 h; Cmax [9]: 214 ± 73.7 ng/mL; Tmax [9]: 0.21 ± 0.08 h; half-life [9]: 1.37 ± 0.54 h
3 | COc1cc(C(=O)O)ccc1O [Vanillic acid, vanillic acid] | 2210 ± 1190 | 1.25 ± 0.71 | 3.69 ± 0.87 | 3870 ± 2530 | 1.47 ± 3.2 | 11.2 ± 13.6 | 1450 ± 501 | 0.17 ± 0.09 | 8.88 ± 3.76 | 10445.53 ± 4148.68 | 14137.57 ± 4540.37 | 6193.78 ± 4499.17 | –
